Molecules are shown by their SMILES.

`*CC(*)C(=O)OCCCCCCCCCC` (repeat unit): the CH4 permeability was determined as 47.8 Barrer, the CO2 permeability stood at 261 Barrer, the H2 permeability is 92.7 Barrer and the N2 permeability is 19 Barrer. This compound registered an O2 permeability of 47.6 Barrer.
Compound `*c1ccc(Oc2ccc(N3C(=O)c4ccc(Oc5ccc(C(c6ccc(Oc7ccc8c(c7)C(=O)N(*)C8=O)cc6)(C(F)(F)F)C(F)(F)F)cc5)cc4C3=O)cc2)cc1` (repeat unit) gave an H2 permeability of 8.95 Barrer, an N2 permeability of 0.084 Barrer and an O2 permeability of 0.55 Barrer.
The compound `*C(=C(*)c1ccc2c(c1)CCC2)c1ccc([Si](C)(C)C)cc1` (repeat unit) showed a CH4 permeability of 470 Barrer, a CO2 permeability of 2000 Barrer, an H2 permeability of 1100 Barrer and an N2 permeability of 170 Barrer. For the same compound, the O2 permeability amounted to 450 Barrer.
With `*c1ccc(Cc2ccc(N3C(=O)c4ccc(C(=O)Oc5ccc(C(c6ccc(OC(=O)c7ccc8c(c7)C(=O)N(*)C8=O)cc6)(C(F)(F)F)C(F)(F)F)cc5)cc4C3=O)cc2)cc1` (repeat unit), the H2 permeability came to 11.8 Barrer, the N2 permeability came out at 0.164 Barrer and the O2 permeability was found to be 0.917 Barrer.
In turn, `*C(=C(*)c1ccc(CCCC)cc1)c1ccccc1` (repeat unit) came in with a CO2 permeability of 160 Barrer, an N2 permeability of 11 Barrer and an O2 permeability of 37 Barrer.
In turn, `*/C(C)=C(/*)[Si](C)(C)CCC` (repeat unit) came in with a CH4 permeability of 44 Barrer, a CO2 permeability of 230 Barrer, an H2 permeability of 250 Barrer and an N2 permeability of 21 Barrer. Also, the O2 permeability turned out to be 70 Barrer.
`*c1cccc(N2C(=O)c3ccc(Oc4ccc(Oc5ccc6c(c5)C(=O)N(*)C6=O)cc4)cc3C2=O)c1` (repeat unit) gave a CO2 permeability of 0.598 Barrer, an H2 permeability of 3.75 Barrer, an N2 permeability of 0.016 Barrer and an O2 permeability of 0.149 Barrer.
In turn, `*Oc1ccc(C2(c3ccc(OC(=O)c4cc(C(*)=O)cc(C(C)(C)C)c4)cc3)OC(=O)c3ccccc32)cc1` (repeat unit) displayed a CH4 permeability of 1.16 Barrer, a CO2 permeability of 23.8 Barrer, an H2 permeability of 41.3 Barrer and an N2 permeability of 1.06 Barrer. Moreover, the O2 permeability is 5.6 Barrer.
The matching figures for `*Oc1c(-c2ccccc2)cc(*)cc1-c1ccccc1` (repeat unit): 2.7 Barrer, 39.9 Barrer, 28 Barrer, 1.5 Barrer and 7.7 Barrer.
As for `*Oc1cc2c(cc1O*)C1(CC2(C)C)CC(C)(C)c2cc3c(cc21)Oc1c(c(C(F)(F)F)c(*)c(*)c1S(=O)(=O)c1ccccc1)O3` (repeat unit), the CO2 permeability amounted to 2160 Barrer, the N2 permeability is 116 Barrer and the O2 permeability is 434 Barrer.
In the case of `*OC1OC(COC(=O)NC(C)(C)C)C(*)C(OCC)C1OCC` (repeat unit), the CH4 permeability was 9.45 Barrer, the CO2 permeability was 94.5 Barrer, the H2 permeability worked out at 73 Barrer and the N2 permeability was 4.3 Barrer. The same compound showed an O2 permeability of 16 Barrer.
In the same order, the values of `*CC(*)c1ccc([Si](C)(C)C)cc1` (repeat unit) are 34 Barrer, 227 Barrer, 182 Barrer, 16 Barrer and 56 Barrer.
The matching figures for `*c1ccc2c(c1)C1c3ccccc3C2c2ccc(N3C(=O)c4ccc(C(c5ccc6c(c5)C(=O)N(*)C6=O)(C(F)(F)F)C(F)(F)F)cc4C3=O)cc21` (repeat unit): 3.65 Barrer, 131 Barrer, 212 Barrer, 5.32 Barrer and 28.1 Barrer.
Compound `*/N=C1/c2ccc(C(c3ccc4c(c3)-c3nc5cc(Oc6ccc(*)c(*)c6)ccc5n3C4=O)(C(F)(F)F)C(F)(F)F)cc2C(=O)N1*` (repeat unit) came in with a CH4 permeability of 0.54 Barrer, a CO2 permeability of 27.6 Barrer, an N2 permeability of 1.2 Barrer and an O2 permeability of 7.9 Barrer.
Regarding `*Oc1ccc(C(C)(C)c2ccc(OC(*)=O)cc2)cc1` (repeat unit), the CH4 permeability came to 0.331 Barrer, the CO2 permeability came to 7.54 Barrer, the H2 permeability amounted to 13 Barrer and the N2 permeability was 0.3 Barrer. This compound displayed an O2 permeability of 1.48 Barrer.
In the same order, the values of `*Oc1c(C)cc(C(C)(C)c2cc(C)c(OC(*)=O)c(C)c2)cc1C` (repeat unit) are 0.89 Barrer, 18.6 Barrer, 32 Barrer, 1.1 Barrer and 5.6 Barrer.
Take `*Oc1c(C)cc(-c2cc(C)c(Oc3ccc(S(=O)(=O)c4ccc(*)cc4)cc3)c(C)c2C)c(C)c1C` (repeat unit): the CH4 permeability was determined as 0.94 Barrer, the CO2 permeability is 25.5 Barrer, the H2 permeability was 63 Barrer and the N2 permeability amounted to 1.2 Barrer. Moreover, the O2 permeability is 6 Barrer.
Compound `*c1ccc(Oc2ccc(C3(c4ccc(Oc5ccc(N6C(=O)c7ccc(C(c8ccc9c(c8)C(=O)N(*)C9=O)(C(F)(F)F)C(F)(F)F)cc7C6=O)cc5)cc4)c4ccccc4-c4ccccc43)cc2)cc1` (repeat unit) displayed a CH4 permeability of 0.69 Barrer, a CO2 permeability of 19.9 Barrer, an H2 permeability of 61.3 Barrer and an N2 permeability of 1.26 Barrer. Also, the O2 permeability was found to be 4.88 Barrer.
In the same order, the values of `*Oc1ccc(Oc2ccc(C(=O)c3ccc(*)cc3)cc2)c(-c2cc(C(F)(F)F)cc(C(F)(F)F)c2)c1` (repeat unit) are 0.38 Barrer, 8.7 Barrer, 21 Barrer, 0.54 Barrer and 3.3 Barrer.
Regarding `*CC(*)(C)C(=O)OCC(F)(F)C(F)(F)C(F)(F)C(F)(F)C(F)(F)C(F)(F)C(F)(F)F` (repeat unit), the CH4 permeability was 14 Barrer, the CO2 permeability was 130 Barrer, the H2 permeability is 82 Barrer and the N2 permeability turned out to be 15 Barrer. This compound also showed an O2 permeability of 30 Barrer.
Compound `*C(=C(*)c1ccc(S(=O)(=O)O)cc1)c1ccc(S(=O)(=O)O)cc1` (repeat unit) had a CO2 permeability of 21 Barrer, an N2 permeability of 0.28 Barrer and an O2 permeability of 2.5 Barrer.
Take `*CC(*)c1ccc(C)cc1` (repeat unit): the CH4 permeability stood at 2.2 Barrer, the CO2 permeability came to 29.8 Barrer, the N2 permeability came to 1.5 Barrer and the O2 permeability turned out to be 7.2 Barrer.
In the same order, the values of `*=CC1CC(C=*)C(C(F)(F)F)(C(F)(F)F)C1(F)F` (repeat unit) are 9.54 Barrer, 102 Barrer, 10.7 Barrer and 27.7 Barrer.
In the same order, the values of `*c1ccc(Sc2ccc(Sc3ccc(N4C(=O)c5ccc(C(c6ccc7c(c6)C(=O)N(*)C7=O)(C(F)(F)F)C(F)(F)F)cc5C4=O)cc3)cc2)cc1` (repeat unit) are 0.28 Barrer, 8.92 Barrer, 0.34 Barrer and 1.77 Barrer.

Values taken from a polymer gas permeability compilation.
